{"source": "patent US9220669B2", "about": "“Resveratrol ferulate compounds, compositions containing the compounds, and methods of using the same” (ELC Management LLC, priority 2007, dated 2015)", "tested_on": "endogenous reactive oxygen species (ROS), primarily hydrogen peroxide (H2O2), in normal human epidermal keratinocyte (NHEK) cell cultures", "assay": "Endogenous reactive oxygen species (ROS) level in NHEK cell cultures, dichlorodihydrofluorescein diacetate fluorescence", "format": "cell-based", "details": "overnight incubation, fluorescence at 5.5 hour time point, NHEK cells", "method": "Specifically, NHEK cells were cultured and plated, followed by treatment with Resveratrol Ferulates at concentrations of about 10 μM, 25 μM, and 50 μM. As comparative examples, some NHEK cells were separated treated with resveratrol at a concentration of about 25 μM. Further as control examples, some NHEK cells were maintained without treatment with either Resveratrol Ferulates or resveratrol. Four samples of NHEK cells were provided for each treatment. After overnight incubation of the cell cultures, dichlorodihydrofluorescein diacetate was added thereinto. Dichlorodihydrofluorescein diacetate is a useful fluorogenic reagent for detecting reactive oxygen species in cells. Upon oxidation by the reactive oxygen species, dichlorodihydrofluorescein diacetate becomes the highly green fluorescent dichlorofluorescein, which can be readily detected by fluorescene spectroscopy. For example, a Gemini EM microplate spectrofluorometer commercially available from Molecular Devices at Sunnyvale, Calif. was employed to measure the fluorescence (Ex450, Em525) of the cell cultures at the 5.5 hour time point, which was used as an indication of the amount of reactive oxygen species (primarily H2O2) in the cells."}
{"smiles": "Oc1ccc(C=Cc2cc(O)cc(O)c2)cc1", "note": "[resveratrol, 3,5,4′-trihydroxystilbene]", "values": [{"measurement": "average reduction in ROS level in comparison with the control samples", "setting": "10 μM", "result": "about 62.0%"}, {"measurement": "average reduction in ROS level in comparison with the control samples", "setting": "25 μM", "result": "about 69.5%"}]}
